Marks after values point to notes of the source that are not given here.
How the values were obtained:
[1] = test system: mice; assay: Isolation-induced pup vocalization test in mice; format: in vivo; settings: for ED50: sc, read-out: Change in vocalization frequency versus control, ED50 value
Procedure: d) Investigation of the Anxiolytic Action in the Isolation-Induced Pup Vocalization Test in Mice
The isolation-induced pup vocalization test in mice was used to investigate anxiolytic actions (Fish, E. W., Sekinda, M., Ferrari, P. F., Dirks, A., Miczek, K. A., Psychopharmacology, vol. 149, p. 277-285, (2000)). Litters of 7 to 13 mice were used for the testing. At the age of 7 days the animals were separated from the mother and placed in an incubation cage with an internal temperature of approx. 34° C. For determination of the vocalizations in the ultrasonic range, the animals were placed individually on a temperature-controlled platform (23 cm×23 cm, divided by a grid into fields of 2 cm×2 cm, 19±1° C.) of a soundproofed test chamber for a duration of 30 sec. The ultrasonic vocalizations were recorded with a high-frequency capacitor microphone, filtered, amplified, digitalized and plotted and analysed using commercial software. Only animals with pre-values of at least 6 vocalizations within 30 sec and a body weight of 3.5 to 5.5 g were employed for the testing. After subcutaneous (s.c.) injection of substance or vehicle, the animals were returned to the incubation cage for a duration of 10 min and then placed individually again on the temperature-controlled plate of the test chamber for a duration of 4 min. In addition to the number of vocalizations, crossings of the grid of the plate and body turns of the mice were determined to investigate influences of the substance on locomotor activity and coordination. Changes in the vocalization frequencies, crossings of the grid and body turns were stated relative to the vehicle control. A reduction in the vocalization frequency is described for anxiolytics.

[2] = biological target: T1, 5-HT re-uptake (Rattus norvegicus, UniProt P31652); assay: Inhibition of 5-HT re-uptake in rat brain synaptosomes (P2 fraction, medulla + pons); format: biochemical; settings: 10 μmol/l
T1 construct: synaptosomes are freshly isolated from rat brain areas; from tissue; host or cells: rat brain synaptosomes (P2 fraction), medulla + pons region, male rats
T1 sequence (P31652 whole entry): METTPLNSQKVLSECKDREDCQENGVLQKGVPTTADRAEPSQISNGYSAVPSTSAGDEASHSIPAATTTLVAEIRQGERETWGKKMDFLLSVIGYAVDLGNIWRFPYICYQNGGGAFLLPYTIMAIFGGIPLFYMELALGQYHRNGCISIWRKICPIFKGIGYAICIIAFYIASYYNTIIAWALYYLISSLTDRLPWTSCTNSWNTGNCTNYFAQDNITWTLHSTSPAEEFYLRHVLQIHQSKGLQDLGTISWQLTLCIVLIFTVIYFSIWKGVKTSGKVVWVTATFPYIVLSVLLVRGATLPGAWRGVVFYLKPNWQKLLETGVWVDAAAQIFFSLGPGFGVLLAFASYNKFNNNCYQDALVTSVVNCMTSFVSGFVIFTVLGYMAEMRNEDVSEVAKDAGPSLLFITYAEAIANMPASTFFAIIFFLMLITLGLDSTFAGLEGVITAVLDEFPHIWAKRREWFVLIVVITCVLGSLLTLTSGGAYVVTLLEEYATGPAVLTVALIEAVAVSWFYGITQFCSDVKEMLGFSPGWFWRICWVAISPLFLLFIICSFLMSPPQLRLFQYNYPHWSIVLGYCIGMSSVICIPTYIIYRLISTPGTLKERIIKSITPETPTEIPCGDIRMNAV
Text: (§1) a) Investigations of the Inhibition of the Re-uptake of 5-HT and NA
(§2) In order to be able to carry out these in vitro studies, synaptosomes are freshly isolated from rat brain areas. […] These vesicular particles are isolated from the hypothalamus for the NA re-uptake and from the medulla +pons region of male rat brains for the 5-HT re-uptake.
(§3) The IC50 values were obtained with the aid of the “Figure P” computer program (version 6.0, Biosoft, Cambridge, England). […] The “Ligand” computer program (version 4, Biosoft, England) was used to obtain KD values.

[3] = biological target: T2, NA re-uptake (Rattus norvegicus, UniProt Q63380); assay: Inhibition of NA re-uptake in rat brain synaptosomes (P2 fraction, hypothalamus); format: biochemical; settings: 10 μmol/l
T2 construct: synaptosomes are freshly isolated from rat brain areas; from tissue; host or cells: rat brain synaptosomes (P2 fraction), hypothalamus
T2 sequence (Q63380 1-617): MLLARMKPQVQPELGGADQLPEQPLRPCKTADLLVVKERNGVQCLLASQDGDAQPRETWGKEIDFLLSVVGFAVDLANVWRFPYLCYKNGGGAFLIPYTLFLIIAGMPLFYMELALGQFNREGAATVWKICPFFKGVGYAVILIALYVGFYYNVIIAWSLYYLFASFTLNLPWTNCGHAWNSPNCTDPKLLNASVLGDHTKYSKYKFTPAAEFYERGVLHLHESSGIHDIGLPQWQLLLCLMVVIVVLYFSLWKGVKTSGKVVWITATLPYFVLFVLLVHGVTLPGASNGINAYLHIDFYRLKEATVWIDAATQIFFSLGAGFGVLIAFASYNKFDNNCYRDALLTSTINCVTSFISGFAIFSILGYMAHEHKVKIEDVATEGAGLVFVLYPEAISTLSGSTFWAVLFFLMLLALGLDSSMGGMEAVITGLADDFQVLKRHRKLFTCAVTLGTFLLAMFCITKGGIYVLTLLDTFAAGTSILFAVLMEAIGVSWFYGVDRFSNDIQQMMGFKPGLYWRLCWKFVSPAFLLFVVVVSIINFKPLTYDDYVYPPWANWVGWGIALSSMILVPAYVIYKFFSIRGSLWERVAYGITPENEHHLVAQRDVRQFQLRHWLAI
Text: as §1, §2, §3

[4] = test system: mice; assay: Formalin test in mice (analgesic action, chronic pain component); format: in vivo; settings: for ED50: Mus musculus, read-out: Inhibition of the nociceptive behaviour versus control, ED50 value
Procedure: b) Investigations of the Analgesic Actions in the Formalin Test in Mice
The formalin test (Dubuisson, D. and Dennis, S. G., 1977, Pain, 4, 161-174) represents a model of acute and chronic pain. The chronic pain component was evaluated in the investigations described here.
A biphase nociceptive reaction which is recorded by observing three behaviour patterns which can be clearly differentiated from one another is induced in freely mobile test animals by a single formalin injection into the dorsal side of a hind paw.
Formalin is administered subcutaneously into the dorsal side of the right hind paw of each animal in a volume of 20 μl and a concentration of 1%.
The specific changes in behaviour which differ from the normal behaviour (score 0), such as raising (score 1) and shaking the paw (score 2) and biting and licking reactions (score 3), are observed and recorded continuously at component intervals of 3 min for up to 60 min after the administration of formalin. The changes in behaviour are weighted in different ways (score 0-3) and a pain rate (PR) is calculated using the following formula: PR=[(T0×0)+(T1×1)+(T2×2)+(T3×3)]/180.
The group size is 10 animals (n=10).
On the basis of the PR calculations, the action of the substance was determined as the change from a control in percent. The ED50 was determined by means of regression analysis.

[5] = test system: mice; assay: Forced swimming test (Porsolt test) in mice; format: in vivo; settings: for Change in immobility phase versus control: 2.15 mg/kg i.p., mice
Procedure: c) Investigation of the Antidepressant Action in the Forced Swimming Test (Porsolt Test) in Mice
The investigations to determine the antidepressant action of the compounds of the formula I according to the invention were carried out in the forced swimming test (Porsolt test) in mice (Porsolt, R. et al., Arch. Int. Pharmacodyn. vol. 229, p. 327-336, (1977)). Male mice (20-25 g body weight) were placed individually for a period of 6 minutes in a shallow bowl of water from which they were unable to escape and were therefore forced to swim. After some time the animals gave up their swimming attempts and passed into an immobility phase. The duration of the immobility phase in the interval of 2-6 minutes after introduction of the animals was determined. The substance and vehicle groups each comprise 10 animals. Changes in the duration of the immobility phase are stated relative to the vehicle control. Differences versus the vehicle control are tested for significance with the aid of the Student's T test. Antidepressants induce a shortening of the immobility phase.

`CN(C)CCCC1(c2ccc(F)cc2)OCc2cc(C#N)ccc21` (stereo not shown) [Citalopram, citalopram] was tested, and the “Change in body turns, maximum change” value ([1]; dose range 0.56-10 mg/kg s.c.) was “+397% (s.)”, the “Change in grid crossings, maximum change” value ([1]; dose range 0.56-10 mg/kg s.c.) was “+66% (n.s.)” and the ED50 ([1]; mouse pups) was 1.2 mg/kg.

`CN(C)CC1=C(c2cccnc2)CCCC1.Cl.Cl` [Example 1, Dimethyl-(2-pyridin-3-yl-cyclohex-1-enylmethyl)amine dihydrochloride] gave an inhibition at 10 µM [2] of 83%, an inhibition at 10 µM [3] of 35% and an ED50 ([4]; iv) of 1.66 mg/kg. For the same compound, the “Inhibition of the nociceptive behaviour (in words)” value ([4]; formalin test in mice) was “dose-dependent inhibition of the nociceptive behaviour”, the “Change in immobility phase versus control” value [5] was −54%*** and the “Shortening of the immobility phase (in words)” value ([5]; forced swimming test in mice) was “significant shortening of the immobility phase”. The “Change in body turns, maximum change” value ([1]; dose range 1.0-17 mg/kg s.c.) was “+233% (n.s.)”, the “Change in grid crossings, maximum change” value ([1]; dose range 1.0-17 mg/kg s.c.) was “+32% (n.s.)” and the “Changes in the crossings of the grid and body turns (in words)” value ([1]; locomotion and coordination) was “no significant changes in the crossings of the grid and body turns”. For the same compound, the “Reduction in the vocalization frequency (in words)” value ([1]; pup vocalization test) was “significant reduction in the vocalization frequency” and the ED50 ([1]; mouse pups) was 1.7 mg/kg.

`CNCC[C@H](Oc1cccc2ccccc12)c1cccs1` [duloxetine, reference compound] was tested, and the ED50 ([4]; ip) was 6.69 mg/kg and the “Change in immobility phase versus control” value [5] was −41%**.

`COc1ccc(C(CN(C)C)C2(O)CCCCC2)cc1` (stereo not shown) [venlafaxine, reference compound] was tested, and the inhibition at 10 µM [3] was 92%, the ED50 ([4]; iv) was 2.6 mg/kg and the “Change in immobility phase versus control” value [5] was −66%***. The ED50 ([1]; Mus musculus) was 8.1 mg/kg, the “Change in body turns, maximum change” value ([1]; dose range 0.3-56 mg/kg s.c.) was “+141% (n.s.)” and the “Change in grid crossings, maximum change” value ([1]; dose range 0.3-56 mg/kg s.c.) was “+92% (n.s.)”.

Reference: patent US7384961B2, “Saturated and unsaturated heteroarylcycloalkylmethyl amines as anti-depressants” (priority 2002, dated 2008)
